Assay [1] has as its system Dlxi1/2b::eGFP+ cells in fused hSS-hCS. As to the kind of experiment: Live imaging of interneuron migration in fused hSS-hCS (control). In kind it is cell-based, human. The settings on record: 100 nM, before vs after exposure. As for the experimental part: Live imaging and analysis of Dlxi1/2b::eGFP+ cell migration. The migration of Dlxi1/2b::eGFP+ cells was imaged for 8-12 hrs under environmentally controlled conditions (37° C., 5% CO2) in intact, fused hSS-hCS using a confocal microscope with a motorized stage (Leica SP8). Fused hSS-hCS were transferred to a well of a 96-well plate (glass-bottom plates, Corning) in 200 μl of NM. Spheroids were incubated in the environmentally controlled chamber for 30-60 min prior to imaging. During a given recording session, up to 8 fused hSS-hCS were imaged at a depth of 50-150 μm depth and a rate of 15-20 min/frame. For pharmacological manipulation, cells were imaged for 12 hrs to record a baseline. Then, the media was carefully removed and new media with small molecules (AMD3100 at 100 nM; nimodipine at 5 μM; or roscovitine at 15 μM) was gently added to the well. The field of view was readjusted to capture the previous region of interest and cells in fused hSS-hCS were imaged for an additional 12 hrs. For imaging of Dlxi1/2b::eGFP+ cells, E17-E18 slices were placed on inserts and infected with Dlxi1/2b::eGFP lentivirus after 24 hrs. The slices were imaged 2 days later using a Leica SP8 confocal microscope (see above). For measuring the branch to soma length ratio of human cells on mouse slices, hSSs infected with Dlxi1/2b::eGFP lentivirus were dissociated and placed on top of E13-14 mouse slices, which were placed on cell culture inserts 8-24 hrs before. The hSS-derived Dlxi1/2b::eGFP+ cells were imaged with the Leica SP8 confocal microscope system at least 48 hrs later. The migration of mouse Dlxi1/2b::eGFP+ cells or Cav1.2-electroporated cells and the migration of human fetal Dlxi1/2b::eG FP-infected cells both imaged using the same setting as described for intact, fused hSS-hCS. Slices were kept on the cell culture inserts during imaging. For quantification of migration of Dlxi1/2b::eGFP+ cells after plating on coverslips, intact hSS were plated on Poly-ornithine/laminin (Sigma) coated glass coverslips (15 mm; Werner). Cells were imaged 7-10 days after using a confocal microscope (Leica SP8) as described above. ImageJ and the Chemotaxis & Migration Tool (Ibidi) were used for the post-acquisition analysis of cell mobility. The StackReg plugin in ImageJ was used to correct for minor drifts during imaging. To estimate the length of individual saltations, Dlxi1/2b::eGFP cells displaying a swelling of the soma were identified, and distance (in μm) to the new position of the soma following nucleokinesis was recorded manually. The time necessary for this movement was used to calculate the speed when mobile. […] Path directness was calculated as the E/A ratio. […]

For assay [2], the target named is element-binding protein (CBP) (Homo sapiens, UniProt Q92793). The settings on record: cited from earlier work.
Assay [3] has as its system Wnt processing and secretion. The settings on record: cell-free assay; read-out: IC50, inhibition of Wnt processing and secretion; cited from earlier work.
The next assay deals with T1, Porcn (Homo sapiens, UniProt Q9H237).
T1 sequence (Q9H237 1-461): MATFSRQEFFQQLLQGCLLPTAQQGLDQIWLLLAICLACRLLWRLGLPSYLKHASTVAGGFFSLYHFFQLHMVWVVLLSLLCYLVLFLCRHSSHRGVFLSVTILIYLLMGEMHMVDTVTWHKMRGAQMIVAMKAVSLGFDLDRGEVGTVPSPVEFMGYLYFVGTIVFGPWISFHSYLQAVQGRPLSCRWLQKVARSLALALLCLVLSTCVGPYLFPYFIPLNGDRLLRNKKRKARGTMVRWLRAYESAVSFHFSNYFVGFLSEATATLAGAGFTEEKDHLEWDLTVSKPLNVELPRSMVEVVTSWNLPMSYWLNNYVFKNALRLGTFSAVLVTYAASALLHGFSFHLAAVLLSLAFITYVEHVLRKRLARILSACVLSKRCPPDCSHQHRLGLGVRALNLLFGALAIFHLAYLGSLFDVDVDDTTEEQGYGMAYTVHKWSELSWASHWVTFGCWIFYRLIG
As to conditions: read-out: EC50, Porcn inhibition; cited from earlier work.

The subject of a further assay is Wnt signaling. The settings on record: TM3 cells; read-out: IC50, inhibition of Wnt signaling; cited from earlier work.
In another assay the target is Smo (Homo sapiens, UniProt Q99835). The settings on record: read-out: KD, Smo heptahelical domain; cited from earlier work.
The target of the next assay is T2, TNKS2 (Homo sapiens, UniProt Q9H2K2).
T2 sequence (Q9H2K2 1-1166): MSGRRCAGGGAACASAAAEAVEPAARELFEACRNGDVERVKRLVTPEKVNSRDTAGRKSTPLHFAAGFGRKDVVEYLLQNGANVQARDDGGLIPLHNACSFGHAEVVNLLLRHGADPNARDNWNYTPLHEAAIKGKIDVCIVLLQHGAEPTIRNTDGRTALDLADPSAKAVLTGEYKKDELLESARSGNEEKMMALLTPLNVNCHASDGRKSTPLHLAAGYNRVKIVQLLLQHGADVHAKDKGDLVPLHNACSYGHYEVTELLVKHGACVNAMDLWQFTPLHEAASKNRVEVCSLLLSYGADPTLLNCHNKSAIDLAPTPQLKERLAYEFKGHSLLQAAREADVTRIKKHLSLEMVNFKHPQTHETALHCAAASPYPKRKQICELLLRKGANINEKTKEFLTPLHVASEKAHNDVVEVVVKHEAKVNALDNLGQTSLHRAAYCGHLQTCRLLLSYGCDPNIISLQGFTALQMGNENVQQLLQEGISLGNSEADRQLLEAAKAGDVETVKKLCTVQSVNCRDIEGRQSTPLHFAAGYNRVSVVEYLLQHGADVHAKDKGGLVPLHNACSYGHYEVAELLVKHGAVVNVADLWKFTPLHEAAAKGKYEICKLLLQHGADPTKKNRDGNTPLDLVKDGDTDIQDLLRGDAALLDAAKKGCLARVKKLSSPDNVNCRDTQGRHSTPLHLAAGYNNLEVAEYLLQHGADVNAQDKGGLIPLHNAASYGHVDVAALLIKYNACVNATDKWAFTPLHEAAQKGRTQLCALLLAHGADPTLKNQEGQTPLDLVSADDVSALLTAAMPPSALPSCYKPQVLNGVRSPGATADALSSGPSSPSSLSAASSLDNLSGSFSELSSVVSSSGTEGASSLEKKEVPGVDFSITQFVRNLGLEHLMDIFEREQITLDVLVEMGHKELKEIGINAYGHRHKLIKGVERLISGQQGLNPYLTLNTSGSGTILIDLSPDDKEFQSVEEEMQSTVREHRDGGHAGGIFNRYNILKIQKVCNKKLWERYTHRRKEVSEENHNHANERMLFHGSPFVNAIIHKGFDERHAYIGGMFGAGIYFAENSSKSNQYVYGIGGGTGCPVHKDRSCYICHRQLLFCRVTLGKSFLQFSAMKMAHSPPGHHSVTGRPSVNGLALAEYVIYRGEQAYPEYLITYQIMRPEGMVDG
As to conditions: cited from earlier work.

In assay [4] the target is Wnt3A-mediated activation of a multimerized TCF-binding site driving luciferase. The settings on record: HEK293 cells; cited from earlier work.
Assay [5] relates to hSS. The assay is described as follows: Characterization of hSS differentiation conditions (RT-qPCR, immunostaining). The settings on record: AlloP with or without RA (hSS-ISA, hSS-ISRA).
Protocol: For the generation of hSS, the medium was supplemented with additional small molecules during the first 23 days in culture; a schematic showing the recipes is presented in FIG. 8a). […] IWP-2 (5 μM; Selleckchem) from day 4 until day 24, and the SHH pathway agonist SAG (smoothened agonist; 100 nM; Selleckchem) from day 12 to day 24. The hSS-ISA condition also included IWP2 and SAG with the addition of allopregnanolone (AlloP 100 nM; Cayman Chemicals) from day 15 to day 23, while the hSS-ISRA condition included AlloP (100 nM) from day 15-23, and a brief exposure (day 12-15) to retinoic acid (RA 100 nM; Sigma). From day 25 to 42, the NM for both the hCS and hSS conditions, was supplemented with the growth factors BDNF (20 ng/ml; Peprotech) and NT3 (20 ng/ml; Peprotech) with medium changes every other day. From day 43 onwards, hCS and hSS were maintained in unsupplemented NM with medium changes every four to six days.
Immunohistochemistry. Cryosections were washed with PBS to remove excess OCT and blocked in 10% goat serum (NGS), 0.3% Triton X-100 diluted in PBS for 1 hr at room temperature. […]
Real time quantitative PCR (qPCR). mRNA was isolated using the RNeasy Mini Kit and RNase-Free DNase set (Qiagen), and template cDNA was prepared by reverse transcription using the SuperScript III First-Strand Synthesis SuperMix for qRT-PCR (Life Technologies). […]
The subject of assay [6] is hSS. As to the kind of experiment: Fluo-4 calcium imaging in intact hSS. The settings on record: 7 days AlloP 100 nM combined with 3-day retinoic acid 100 nM (hSS-ISRA); ~day 50; P=0.006.
Protocol: The generation of hCS from hiPSC was performed as previously described. […] For the generation of hSS, the medium was supplemented with additional small molecules during the first 23 days in culture; a schematic showing the recipes is presented in FIG. 8a). […] IWP-2 (5 μM; Selleckchem) from day 4 until day 24, and the SHH pathway agonist SAG (smoothened agonist; 100 nM; Selleckchem) from day 12 to day 24. The hSS-ISA condition also included IWP2 and SAG with the addition of allopregnanolone (AlloP 100 nM; Cayman Chemicals) from day 15 to day 23, while the hSS-ISRA condition included AlloP (100 nM) from day 15-23, and a brief exposure (day 12-15) to retinoic acid (RA 100 nM; Sigma). From day 25 to 42, the NM for both the hCS and hSS conditions, was supplemented with the growth factors BDNF (20 ng/ml; Peprotech) and NT3 (20 ng/ml; Peprotech) with medium changes every other day. From day 43 onwards, hCS and hSS were maintained in unsupplemented NM with medium changes every four to six days.
Fluo-4 calcium imaging in intact hSS. […] Spontaneous calcium activity was recorded for 10 min (one frame every 8-10 s) in one 10 μm z-stack plane. Fluorescence intensity (F) was exported as mean gray values in ImageJ. Signal decay was controlled by subtracting the mean fluorescence of the background (Fb). […]
Assay [7] has as its system Dlxi1/2b::eGFP cells that migrated into hCS. As to conditions: 10 μM; fused hSS-hCS slices. As for the experimental part: (§1) Electrophysiology. […] Slicing was performed using a Leica VT1200 vibratome. Immediately after sectioning, slices were moved to a circulation chamber containing ACSF at 32° C.
(§2) For patch-clamp recording, cells were identified by the presence of a fluorescent reporter using an upright Axoscop II microscope (Zeiss). […] Cl− reversal was calculated to be at −91 mV according to the Nernst equation. […] The Cl− reversal potential was calculated to be 0 mV according to the Nernst equation. IPSCs were blocked by application of the GABAA receptor antagonist gabazine (10 μM, Abcam), which was added to superfused ACSF. EPSCs were blocked by application of the glutamate receptor antagonist kynurenic acid (1 mM, Abcam), which was added to superfused ACSF. Electrical simulation was delivered using a bipolar tungsten electrode (FHS) placed […] away from a recorded neuron. Stimulations were delivered to slices for 0.1 ms at […] and separated by at least 10 s. Inward EPSCs and outward IPSPs were recorded by filling the patch pipette with a low chloride internal solution (ECI−=−90 mV) and holding the cell at −40 mV, which is the midpoint between ECI− and EK+/Na+. […] Recordings were filtered at 10 kHz. Synaptic recordings were analyzed using custom software developed by J. R. H. (Wdetecta).

The next assay concerns neurons in hSS. As to conditions: 10 μM; 250 μm sections of hSS. On the procedure: as §1, §2
The subject of another assay is hCS neurons. As to the kind of experiment: Patch clamp recording of EPSCs in sliced hCS. The assay is classed as cell-based, human. As to conditions: 1 mM, added to superfused ACSF. On the procedure: Electrophysiology. […] Slicing was performed using a Leica VT1200 vibratome. […] Recordings were filtered at 10 kHz. […] Action potentials were analyzed using custom MATLAB (MathWorks) programs.
On the technique in general: In patch-clamp work, channel activity is measured electrically.

Assay [8] has as its system TS Dlxi1/2b::eGFP+ cells in fused hSS-hCS. As to the kind of experiment: Live imaging of interneuron migration in fused hSS-hCS from Timothy syndrome. In kind it is cell-based, human. The settings on record: 15 μM, P<0.001. On the procedure:
Live imaging and analysis of Dlxi1/2b::eGFP+ cell migration. The migration of Dlxi1/2b::eGFP+ cells was imaged for 8-12 hrs under environmentally controlled conditions (37° C., 5% CO2) in intact, fused hSS-hCS using a confocal microscope with a motorized stage (Leica SP8). Fused hSS-hCS were transferred to a well of a 96-well plate (glass-bottom plates, Corning) in 200 μl of NM. Spheroids were incubated in the environmentally controlled chamber for 30-60 min prior to imaging. During a given recording session, up to 8 fused hSS-hCS were imaged at a depth of 50-150 μm depth and a rate of 15-20 min/frame. For pharmacological manipulation, cells were imaged for 12 hrs to record a baseline. […] The field of view was readjusted to capture the previous region of interest and cells in fused hSS-hCS were imaged for an additional 12 hrs. […] For quantification of migration of Dlxi1/2b::eGFP+ cells after plating on coverslips, intact hSS were plated on Poly-ornithine/laminin (Sigma) coated glass coverslips (15 mm; Werner). […] To estimate the length of individual saltations, Dlxi1/2b::eGFP cells displaying a swelling of the soma were identified, and distance (in μm) to the new position of the soma following nucleokinesis was recorded manually. […] Path directness was calculated as the E/A ratio. […]

One may read the IC50 as the concentration at which inhibition is half-maximal. In general, EC50 refers to the concentration at which the effect is half-maximal. As usually defined, the Kd is the constant that tells how readily two partners part at equilibrium.

Chain of Smo (Q99835 28-787): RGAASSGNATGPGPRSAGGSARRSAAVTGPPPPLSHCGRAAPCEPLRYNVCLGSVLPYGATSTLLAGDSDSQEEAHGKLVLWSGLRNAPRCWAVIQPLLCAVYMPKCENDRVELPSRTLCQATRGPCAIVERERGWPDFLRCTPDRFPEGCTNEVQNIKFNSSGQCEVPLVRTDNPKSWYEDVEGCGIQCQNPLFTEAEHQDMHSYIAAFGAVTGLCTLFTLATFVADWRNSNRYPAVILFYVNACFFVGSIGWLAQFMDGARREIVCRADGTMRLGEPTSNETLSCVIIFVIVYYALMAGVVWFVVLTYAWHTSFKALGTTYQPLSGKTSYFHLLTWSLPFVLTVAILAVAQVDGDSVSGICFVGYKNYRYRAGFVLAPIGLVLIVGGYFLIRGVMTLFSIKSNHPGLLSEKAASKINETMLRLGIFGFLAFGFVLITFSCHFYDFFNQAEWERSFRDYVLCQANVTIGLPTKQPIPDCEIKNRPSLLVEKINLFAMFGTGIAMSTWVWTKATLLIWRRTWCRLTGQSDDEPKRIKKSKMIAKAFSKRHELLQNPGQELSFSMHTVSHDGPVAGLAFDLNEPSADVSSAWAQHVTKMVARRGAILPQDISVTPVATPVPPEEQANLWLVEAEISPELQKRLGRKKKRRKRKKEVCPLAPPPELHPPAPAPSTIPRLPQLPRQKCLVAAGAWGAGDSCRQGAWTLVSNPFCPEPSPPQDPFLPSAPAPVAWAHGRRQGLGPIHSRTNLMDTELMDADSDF
Chain of element-binding protein (CBP) (Q92793 whole entry): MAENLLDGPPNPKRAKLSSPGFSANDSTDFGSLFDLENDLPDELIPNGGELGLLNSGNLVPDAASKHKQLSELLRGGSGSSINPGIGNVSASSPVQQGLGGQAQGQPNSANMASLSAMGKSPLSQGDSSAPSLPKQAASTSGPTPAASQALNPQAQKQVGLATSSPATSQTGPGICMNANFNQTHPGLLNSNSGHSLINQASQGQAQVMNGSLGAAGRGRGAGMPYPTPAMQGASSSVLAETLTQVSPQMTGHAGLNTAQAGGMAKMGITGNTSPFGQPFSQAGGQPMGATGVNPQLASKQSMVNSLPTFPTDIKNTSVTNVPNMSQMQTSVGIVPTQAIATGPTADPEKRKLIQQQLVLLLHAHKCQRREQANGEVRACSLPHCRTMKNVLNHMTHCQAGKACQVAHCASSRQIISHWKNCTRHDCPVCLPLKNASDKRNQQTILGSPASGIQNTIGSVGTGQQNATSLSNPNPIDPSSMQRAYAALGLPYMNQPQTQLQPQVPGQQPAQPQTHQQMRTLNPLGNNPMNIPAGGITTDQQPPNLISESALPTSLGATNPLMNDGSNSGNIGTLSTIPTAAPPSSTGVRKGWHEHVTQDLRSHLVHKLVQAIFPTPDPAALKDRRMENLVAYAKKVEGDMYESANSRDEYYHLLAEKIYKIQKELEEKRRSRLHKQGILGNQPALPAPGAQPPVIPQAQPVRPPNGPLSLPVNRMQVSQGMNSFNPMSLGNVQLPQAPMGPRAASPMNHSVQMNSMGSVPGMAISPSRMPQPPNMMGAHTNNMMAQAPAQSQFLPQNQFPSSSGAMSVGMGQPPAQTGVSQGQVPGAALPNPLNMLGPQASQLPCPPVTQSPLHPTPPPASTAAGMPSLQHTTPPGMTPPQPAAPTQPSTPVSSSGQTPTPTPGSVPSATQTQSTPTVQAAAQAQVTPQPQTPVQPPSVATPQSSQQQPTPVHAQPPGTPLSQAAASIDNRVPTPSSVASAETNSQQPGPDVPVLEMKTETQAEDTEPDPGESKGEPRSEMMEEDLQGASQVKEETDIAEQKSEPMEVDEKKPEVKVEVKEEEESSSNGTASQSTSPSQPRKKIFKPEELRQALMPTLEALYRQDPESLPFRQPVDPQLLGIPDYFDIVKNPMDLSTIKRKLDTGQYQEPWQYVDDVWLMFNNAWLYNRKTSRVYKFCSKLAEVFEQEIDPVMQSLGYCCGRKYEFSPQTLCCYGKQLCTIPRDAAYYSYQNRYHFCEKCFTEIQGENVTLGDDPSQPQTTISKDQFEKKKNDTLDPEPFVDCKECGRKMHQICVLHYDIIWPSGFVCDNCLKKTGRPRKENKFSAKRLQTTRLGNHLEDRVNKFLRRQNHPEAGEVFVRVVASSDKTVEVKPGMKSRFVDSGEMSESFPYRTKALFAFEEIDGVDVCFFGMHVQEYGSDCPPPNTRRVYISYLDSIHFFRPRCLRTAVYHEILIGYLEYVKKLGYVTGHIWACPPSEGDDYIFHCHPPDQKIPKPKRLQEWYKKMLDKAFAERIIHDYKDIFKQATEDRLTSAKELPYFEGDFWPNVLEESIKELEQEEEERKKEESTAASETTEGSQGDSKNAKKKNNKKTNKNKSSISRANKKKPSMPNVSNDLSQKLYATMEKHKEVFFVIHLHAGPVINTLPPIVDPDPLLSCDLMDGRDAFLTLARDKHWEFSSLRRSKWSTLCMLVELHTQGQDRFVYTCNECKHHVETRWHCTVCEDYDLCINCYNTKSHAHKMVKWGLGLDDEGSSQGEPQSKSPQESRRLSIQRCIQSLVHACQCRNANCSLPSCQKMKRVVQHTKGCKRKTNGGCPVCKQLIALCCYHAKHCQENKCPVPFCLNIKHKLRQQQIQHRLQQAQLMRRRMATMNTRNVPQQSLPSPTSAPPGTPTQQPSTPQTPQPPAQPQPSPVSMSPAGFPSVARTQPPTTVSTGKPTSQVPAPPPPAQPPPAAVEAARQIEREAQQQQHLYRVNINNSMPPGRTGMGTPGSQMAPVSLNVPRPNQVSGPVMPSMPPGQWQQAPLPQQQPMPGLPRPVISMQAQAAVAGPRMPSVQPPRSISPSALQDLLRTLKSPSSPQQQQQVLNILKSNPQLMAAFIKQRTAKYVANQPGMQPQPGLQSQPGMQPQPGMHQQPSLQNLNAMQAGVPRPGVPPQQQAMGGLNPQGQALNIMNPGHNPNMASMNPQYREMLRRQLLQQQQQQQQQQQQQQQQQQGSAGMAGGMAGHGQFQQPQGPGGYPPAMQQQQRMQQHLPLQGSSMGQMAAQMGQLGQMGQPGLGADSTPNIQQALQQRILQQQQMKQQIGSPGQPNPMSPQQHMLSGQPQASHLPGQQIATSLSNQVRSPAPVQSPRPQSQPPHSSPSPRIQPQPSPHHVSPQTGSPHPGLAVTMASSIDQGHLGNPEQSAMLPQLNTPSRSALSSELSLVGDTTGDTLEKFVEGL

On to `c1cc(CN2CCCNCCNCCCNCC2)ccc1CN1CCCNCCNCCCNCC1` [AMD3100], for which, in assay [1] (P=0.006), the saltation length entry is given as “significant reduction” and the speed when mobile result is “significant reduction”. For the same compound, the path directness entry in assay [1] (P=0.02) is listed as “change”. Besides, the frequency of saltations result in assay [1] (P=0.03) is “significant reduction”.
For `O=C1[C@H](Cc2ccc(O)cc2)N2C(=O)CCN(C(=O)NCc3ccccc3)[C@H]2CN1Cc1cccc2ccccc12` [ICG-001], the IC50 in assay [2] is 3000 nM.
Take `Cc1ccc2nc(NC(=O)CSc3nc4c(c(=O)n3-c3ccccc3)SCC4)sc2c1` [IWP-2]: the IC50 in assay [3] was 27 nM.
As to `O=C(CSc1nc2c(c(=O)n1-c1ccccc1)SCC2)Nc1ccc(-c2ccccc2)cn1` [IWP-L6], on Porcn, the EC50 is 0.5 nM.
For `Cc1cc(-c2ncc(CC(=O)Nc3ccc(-c4cnccn4)cn3)cc2C)ccn1` [LGK-974], in the assay on Wnt signaling, the IC50 is 0.4 nM.
In the case of `CNC1CCC(N(Cc2cccc(-c3ccncc3)c2)C(=O)c2sc3ccccc3c2Cl)CC1` (centres unmarked) [SAG], the Kd at Smo is 59 nM.
For `COc1ccc(-n2c(SCCCN3C(=O)c4cccc5cccc(c45)C3=O)nnc2-c2ccncc2)cc1` [WIKI4], the half-maximal inhibitory concentration (IC50) on TNKS2 was 15 nM.
Consider `Cc1cc(-c2ccc(CC(=O)Nc3ccc(-c4cccnc4)cc3)cc2)ccn1` [Wnt-059], for which the half-maximal inhibitory concentration (IC50) in assay [4] was 0.074 nM.
Regarding `CC(=O)[C@H]1CC[C@H]2[C@@H]3CC[C@H]4C[C@H](O)CC[C@]4(C)[C@H]3CC[C@]12C` [allopregnanolone], the “subpallial fate, neurotransmitter identity and GABAergic subtypes in hSS” value with hSS [5] is on record as “did not alter”. In addition, the “frequency of spontaneous calcium spikes” value in the assay on hSS [6] is “significantly increased”.
As for `COc1ccc(-c2ccc(=N)n(CCCC(=O)O)n2)cc1` [gabazine], in [7], the “evoked disynaptic IPSCs after electrical stimulation” value is given as “sensitive”. The “spontaneous inhibitory postsynaptic responses (sIPSCs)” value in the assay with neurons in hSS is listed as “abolished”.
In the case of `O=C(O)c1cc(=O)c2ccccc2[nH]1` [kynurenic acid], the EPSCs result in the assay with hCS neurons is on record as “blocked”.
`CC[C@H](CO)Nc1nc(NCc2ccccc2)c2ncn(C(C)C)c2n1` [roscovitine]: the saltation length result in assay [8] is reported as “rescuing”.

These data come from patent publication US12173313B2, “Assembly of functionally integrated human forebrain spheroids and methods of use thereof” (The Board of Trustees of the Leland Stanford Junior …, priority 2017, dated 2024).
